# Reference: patent publication US20080075796A1, “Compositions and Methods for Controlling Insects” (TyraTech, Inc., priority 2003, published 2008)
# Where “and” joins values, the source holds several entries; their conditions need not be identical. Equal entries are not always repeated.
# Key:
# tyramine receptor (TyrR) = biological target: T1, tyramine receptor (TyrR) (Drosophila melanogaster, UniProt P22270); conditions: displacement of about 2 nM ^3H-tyramine
# T1 sequence (P22270 27-601): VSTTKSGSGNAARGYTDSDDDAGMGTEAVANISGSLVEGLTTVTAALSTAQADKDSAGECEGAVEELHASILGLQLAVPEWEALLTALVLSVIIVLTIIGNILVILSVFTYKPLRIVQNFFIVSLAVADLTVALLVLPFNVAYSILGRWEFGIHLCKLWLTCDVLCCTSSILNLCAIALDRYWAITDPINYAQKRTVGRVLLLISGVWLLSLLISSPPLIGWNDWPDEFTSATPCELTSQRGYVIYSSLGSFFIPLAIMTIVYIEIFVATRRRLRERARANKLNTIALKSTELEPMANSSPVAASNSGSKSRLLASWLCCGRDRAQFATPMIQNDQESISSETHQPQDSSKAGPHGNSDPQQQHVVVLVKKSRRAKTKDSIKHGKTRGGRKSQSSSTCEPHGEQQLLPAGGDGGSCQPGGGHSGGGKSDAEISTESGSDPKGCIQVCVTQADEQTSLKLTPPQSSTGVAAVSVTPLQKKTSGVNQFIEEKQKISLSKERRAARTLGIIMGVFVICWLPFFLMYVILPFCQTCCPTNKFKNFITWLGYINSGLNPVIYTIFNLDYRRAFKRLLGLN
# Procedure: A preliminary study to determine the optimum concentration of membrane protein for receptor binding activity is performed. […] After about 1 hr incubation at room temperature, reactions are terminated by filtration through GF/C filters (VWR), which have been previously soaked in about 0.3% polyethyleneimine (PEI). The filters are washed one time with about 4 ml ice cold Iris buffer and air dried before the retained radioactivity is measured using LSC. Binding data is analyzed by curve fitting (GraphPad software, Prism).
# Receptor binding reactions are incubated for about 1 hr at room temperature (RT) in restricted light. Reactions are terminated by filtration through OF/C filters (VWR), which have been previously soaked in about 0.3% polyethyleneimine (PEI). The filters are washed one time with about 4 ml ice cold Tris buffer and air dried before retained radioactivity is measured using LSC. Binding data is analyzed by curve fitting (GraphPad software, Prism).
# Or83b receptor [1] = biological target: T2, Or83b receptor (Drosophila melanogaster, UniProt Q9VNB5); test: Intracellular Ca^2+ mobilization in Schneider cells expressing Or83b receptor; type: cell-based; conditions: ionomycin about 2 μM, tyramine about 10 μM
# T2 construct: His (from vector pAc5.1/V5-His B) (C); expressed in transfected cells
# T2 sequence (Q9VNB5 1-486): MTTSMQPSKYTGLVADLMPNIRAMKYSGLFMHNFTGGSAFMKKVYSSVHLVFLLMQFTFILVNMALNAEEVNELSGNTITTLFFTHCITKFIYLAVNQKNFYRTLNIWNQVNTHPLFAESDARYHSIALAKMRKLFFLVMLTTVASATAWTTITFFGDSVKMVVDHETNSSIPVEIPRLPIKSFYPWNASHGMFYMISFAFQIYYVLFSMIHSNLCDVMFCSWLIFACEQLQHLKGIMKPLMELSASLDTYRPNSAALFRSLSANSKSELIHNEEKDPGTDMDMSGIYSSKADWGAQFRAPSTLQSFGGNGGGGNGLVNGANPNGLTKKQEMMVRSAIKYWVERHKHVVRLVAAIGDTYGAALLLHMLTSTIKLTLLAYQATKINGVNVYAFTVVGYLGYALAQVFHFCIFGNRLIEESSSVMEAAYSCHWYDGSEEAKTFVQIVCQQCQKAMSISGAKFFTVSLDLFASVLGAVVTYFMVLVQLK
# Procedure: Intracellular calcium ion concentrations ([Ca^2+]i) are measured by using the acetoxymethyl (AM) ester of the fluorescent indicator fura-2 (Enan, et al., Biochem. Pharmacol vol 51, 447-454). In this study, cells expressing tyramine receptor are grown under standard conditions. A cell suspension is prepared in assay buffer (140 mM NaCL, 10 mM HEPES, 10 mM glucose, 5 mM KCl, 1 mM CaCl2, 1 mM MgCl2) and cell number adjusted to about 2×10^6 cells per ml. Briefly, about 1.0 ml cell suspension (about 2×10^6 cells) is incubated with about 5 μM Fura 2/AM for about 30 min at about 28° C. After incubation, the cells are pelleted at about 3700 rpm for about 10 sec at room temperature and then resuspended in about 1.5 ml assay buffer. [Ca^2+]i changes are analyzed in spectrofluorometer in the presence and absence of test chemicals. Excitation wave lengths are about 340 nm (generated by Ca^2+-bound fura-2) and about 380 nm (corresponding to Ca^2+-free fura-2). The fluorescence intensity is monitored at an emission wave length of about 510 nm. No absorbance of fluorescence artifacts are observed with any of the compounds used. The ratio of about 340/380 nm is calculated and plotted as a function of time.
# Intracellular Ca^2+ levels are measured using the method described above in Example 3.
# Or83b receptor [2] = biological target: T2, Or83b receptor; test: cAMP production in Schneider cells expressing Or83b receptor; type: cell-based
# Procedure: Cells are grown on dishes and the media changed the day before the treatment. When cells are approximately 95% confluent, media is aspirated and the cells are washed one time with about 5 mL of about 27° C. insect saline (170 mM NaCl, 6.0 mM KCl, 2.0 mM NaHCO3, 17.0 mM glucose, 6.0 mM NaH2PO4, 2.0 mM CaCl2, 4.0 mM MgCl2; pH 7.0). About 20 mL of insect saline is added, and cells are harvested by gentle scraping. An aliquot of the cells is counted by hemocytometer, and the cells are then centrifuged for about 5 minutes at about 1000 RPM. Cells are resuspended to give about 3×10^6 cells per mL. IBMX is added to about 200 μM. Then about 1 mL of cell suspension is aliquoted for treatment. Forskolin (cAMP inducing agent), tyramine or different composition candidates are added, and the cells are incubated at about 27° C. for about 10 minutes.
# Treated cells are centrifuged at about 13000 g for about 10 seconds. The solution is aspirated and about 1 mL of about −20° C. 70% ethanol is added. The cell pellet is disrupted by vortexing and the samples placed at about −20° C. overnight. Following the ethanol extraction, cellular debris is pelleted by centrifugation at about 13000 g for about 5 minutes. The supernatant is transferred to a tube and lyophilized to dryness in a rotary speed-vac. The resulting extract is resuspended in about 100 μL TE and used for the cAMP assay.
# The cAMP assay is based on competition binding between endogenous cAMP and ^3H-cAMP to a cAMP binding protein. The ^3H-cAMP Biotrak system (Amersham Biosciences) is used for this assay as per the manufacturer's instructions. Briefly, about 50 μL of the cellular extract is incubated with about 50 μL ^3H-cAMP and about 100 μL cAMP binding protein in an ice bath for about 2-4 hours. Charcoal (about 100 μL) is then added and the solution centrifuged for about 3 minutes at about 4° C. About 200 μL of the reaction mixture is removed and levels of ^3H-cAMP are determined by scintillation counting. Levels of endogenous cAMP from the cells are calculated using a standard curve with cold cAMP ranging from about 0 to 16 pmol per reaction.
# To ensure that the cAMP cascade in this cell model is functionally active, forskolin, a cAMP inducer, is used as standard agent. Cyclic-AMP levels are measured using the cAMP assay described above in Example 2. […]
# To determine the effect of various plant essential oils on intracellular cAMP production and the tyramine-dependent changes of cAMP in cells expressing one of the olfactory receptors, cells from each cell model are treated with LFO (about 50 μg/ml) and BSO (about 50 μg/ml) in the presence and absence of tyramine (about 20 μM) and forskolin (about 10 μM) and intracellular cAMP is thereafter quantified using the cAMP assay described above in Example 2.
structure (smiles),measurement,setting,value
NCCc1ccc(O)cc1 [tyramine],EC50,tyramine receptor (TyrR); EC50 (concentration at which binding is inhibited by 50%),~305 nM and 305 nM
same,Ki,tyramine receptor (TyrR); Ki,~127 nM and 127 nM
same,increase in intracellular calcium,Or83b receptor [1],~1.18 fold
same,increase of cAMP production beyond the effect of forskolin by itself,Or83b receptor [2]; forskolin-pretreated cells (about 10 μM),10-13%
same,increase in cAMP production,"Or83b receptor [2]; tyramine about 20 μM, LFO and BSO about 50 μg/ml",approximately 34%
